This is an account of results in US10322126B2, “Solid dispersions of low-water solubility actives” (Bend Research, Inc., priority 2013, dated 2019).

Data set [1] is described as follows: Microcentrifuge dissolution test (simulated gastric buffer, then FaSSIF). As to conditions: 37° C. In kind it is physicochemical. The protocol:
Dispersion 1 was evaluated in vitro using a microcentrifuge dissolution test using the following procedure. First, a sample of Dispersion 1 was placed in a microcentrifuge tube. A simulated gastric buffer (GB) solution consisting of 0.01 N HCl in water at 37° C. was added to each tube, so that the concentration if all of the active in the dispersion had dissolved would have been 2000 μg/mL. The tubes were vortexed for 1 minute. All work was performed in a temperature-controlled box at 37° C. After 9 minutes, the tubes were centrifuged at 13,000 rpm for 1 minute. A 50 μL centrifuged supernatant aliquot was removed from each tube and added to an HPLC vial containing 250 μL HPLC grade methanol. Following sample removal, the tubes were vortexed for 30 seconds. The tubes were allowed to sit undisturbed until the next sample, repeating the centrifuging/sampling/vortexing steps described above, to obtain a sample at 25 minutes following addition of the GB solution to the sample.
After 30 minutes in the GB solution, 0.8 mL of double strength (1 wt %) simulated intestinal fluid powder (SIF powder, available from Phares AG, Basel, Switzerland) in double strength phosphate buffer saline (0.166 M NaCl, 0.040 M Na2HPO4, and 0.093 M KH2PO4), adjusted to pH 6.5 was added to each tube. The tubes were vortexed for 1 minute. The testing solution composition was used to model fasted simulated intestinal fluid (FaSSIF). The FaSSIF powder contains bile salts (taurocholate) and phospholipids (lecithin) in a molar ratio of 4 to 1, along with buffers and osmotic adjusters. The concentration of active in each tube was 1000 μg/mL if all of the active had dissolved. After 3 minutes in the FaSSIF solution, the tubes were centrifuged at 13,000 rpm for 1 minute. A 50 μL centrifuged supernatant aliquot was removed, as previously described, and added to an HPLC vial containing 250 μL of methanol. The tube then was vortexed for 30 seconds, and left undisturbed until the next time point. The procedure was repeated to collect samples at 10, 20, 40, 90, and 180 minutes after addition of FaSSIF to the vials.
The dissolved concentrations of active were measured by HPLC. HPLC was performed using a Zorbax® SB-C18, 4.6×150 mm, 5 μm column at 30° C., and a mobile phase comprising 20 mM ammonium acetate/acetonitrile (43/57 vol/vol). The flow rate was 1.0 mL/min, 10 μL of each solution was injected, and the absorbance was measured at 332 nm.
Dispersion 2 was tested using the same procedures described above. Control 1 was tested using the same procedures described above.

For data set [2] the following is noted: cited from earlier work.

Regarding `C#Cc1cccc(Nc2ncnc3cc(OCCOC)c(OCCOC)cc23)c1` [Erlotinib, N-(3-ethynylphenyl)-6,7-bis(2-methoxyethoxy) quinazolin-4-amine], the “Dissolved Active Concentration” value was 1,847.8 μg/mL in data set [1] (10 minutes, GB solution (0.01 N HCl), 2000 μg/mL if all dissolved); 1,818.5 μg/mL in data set [1] (25 minutes, GB solution (0.01 N HCl), 2000 μg/mL if all dissolved); 58.0 µg/mL in data set [1] (34 minutes (4 min after addition of FaSSIF, pH 6.5), 1000 μg/mL if all dissolved); 68.1 µg/mL in data set [1] (40 minutes (10 min after addition of FaSSIF, pH 6.5), 1000 μg/mL if all dissolved); 51.4 µg/mL in data set [1] (50 minutes (20 min after addition of FaSSIF, pH 6.5), 1000 μg/mL if all dissolved); 55.1 µg/mL in data set [1] (70 minutes (40 min after addition of FaSSIF, pH 6.5), 1000 μg/mL if all dissolved). Besides, the “Dissolved Active Concentration” value in data set [1] (120 minutes (90 min after addition of FaSSIF, pH 6.5), 1000 μg/mL if all dissolved) is 67.8 µg/mL; in data set [1] (210 minutes (180 min after addition of FaSSIF, pH 6.5), 1000 μg/mL if all dissolved) it was 55.1 µg/mL. Moreover, the “solubility in phosphate buffered saline (pH 6.5)” value in data set [2] is reported as “about 1 μg/mL”.
